In test [1] the target is T1, GLS1 (purified recombinant human GAC) (Homo sapiens, UniProt O94925).
T1 sequence (O94925 55-598 isoform O94925-3 limits assumed): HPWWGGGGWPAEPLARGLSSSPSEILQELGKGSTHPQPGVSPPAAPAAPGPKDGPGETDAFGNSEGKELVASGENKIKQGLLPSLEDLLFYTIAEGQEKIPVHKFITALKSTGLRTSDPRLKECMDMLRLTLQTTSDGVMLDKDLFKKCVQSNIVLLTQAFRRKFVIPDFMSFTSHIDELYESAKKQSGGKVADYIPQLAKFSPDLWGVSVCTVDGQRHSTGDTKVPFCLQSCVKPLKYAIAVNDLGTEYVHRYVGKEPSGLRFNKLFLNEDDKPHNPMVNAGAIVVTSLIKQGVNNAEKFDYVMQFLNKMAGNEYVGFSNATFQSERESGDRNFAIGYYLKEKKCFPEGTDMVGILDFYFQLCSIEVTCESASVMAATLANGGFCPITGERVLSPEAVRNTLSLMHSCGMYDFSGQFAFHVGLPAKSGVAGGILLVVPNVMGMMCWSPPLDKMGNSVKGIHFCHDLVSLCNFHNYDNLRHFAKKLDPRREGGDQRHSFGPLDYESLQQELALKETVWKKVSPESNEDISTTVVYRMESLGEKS
Briefly: GLS1 enzymatic activity assay (dual-coupled, Amplex UltraRed/resorufin). The format is biochemical. Here is the method:
GLS1 Enzymatic Activity Assay
The inhibition of purified recombinant human GAC by varying concentrations of inhibitors is assessed via a dual-coupled enzymatic assay. The glutamate produced by the glutaminase reaction is used by glutamate oxidase to produce α-ketoglutarate, ammonia, and hydrogen peroxide, with this hydrogen peroxide subsequently being used by horseradish peroxidase to produce resorufin in the presence of Amplex UltraRed. The assay buffer consisted of 50 mM Hepes (pH 7.4), 0.25 mM EDTA and 0.1 mM Triton X-100. GAC was incubated with potassium phosphate (10 minutes at room temperature) prior to incubation with inhibitor (10 minutes at room temperature). The final reaction conditions were as follows: 2 nM GAC, 50 mM potassium phosphate, 100 mU/mL glutamate oxidase (Sigma), 1 mM glutamine (Sigma), 100 mU/mL horseradish peroxidase (Sigma), 75 μM Amplex UltraRed (Life Technologies), and 1% (v/v) DMSO. The production of resorufin was monitored on a Perkin Elmer Envision plate reader (excitation 530 nm, emission 590 nm) either in a kinetics or endpoint mode (at 20 minutes). IC50 values were calculated using a four-parameter logistic curve fit.

The next test has as its system A549 cells. Briefly: A549 proliferation (viability) assay, Cell Titer Fluor, 72 hours. The format is cell-based. Conditions: Homo sapiens. Here is the method: A549 cells were routinely maintained in RPMI 1640 media (Gibco catalog number 11875-093) supplemented with 10% dialyzed fetal bovine serum using a humidified incubator (37° C., 5% CO2 and ambient O2). In preparation for the viability assay, cells were inoculated into 384-well black CulturPlates (Perkin Elmer) at a density of 1000 cells/well in a volume of 40 uL. Following a 24-hour incubation at 37° C., 5% CO2 and ambient O2, cells were treated with compound (10 uL) in a final DMSO concentration of 0.5% (v/v). The microplates were then incubated for 72 hours (37° C., 5% CO2 and ambient O2). Cell Titer Fluor (Promega) was subsequently added (10 uL of 6× reagent) and mixed for 15 minutes at room temperature. The plates were then incubated for 30 minutes (37° C., 5% CO2 and ambient O2) and fluorescence was subsequently read on the Perkin Elmer Envision plate reader. EC50 values were calculated using a four-parameter logistic curve fit.

pEC50, pIC50: −log10 of the molar value.

Broadly, the pIC50 is −log10 of the IC50, conventionally taken in molar units. Broadly, the pEC50 is the EC50 on a negative log10 scale, so that one unit is a factor of ten.

Take `O=C(Nc1ccn(CCC(F)Cn2cc(C(=O)NCc3cc(OC(F)(F)F)ccc3F)nn2)c(=O)c1F)C(=O)N1CCC[C@H](C(F)(F)F)C1` (mixture of isomers) [Example 435]: the negative-log IC50 (pIC50) in test [1] was over 7.00. Besides, the pEC50 with A549 cells is over 7.00.

For `CC(=O)OC(C(=O)Nc1ccn(CC[C@@H](F)Cn2cc(C(=O)NCc3cccc(OC(F)(F)F)c3)nn2)c(=O)c1F)c1ccccc1` (stereo in doubt) [Example 306, (R)-[(3-fluoro-1-{3-fluoro-4-[4-({[3-(trifluoromethoxy)phenyl]methyl}carbamoyl)-1H-1,2,3-triazol-1-yl]butyl}-2-oxo-1,2-dihydropyridin-4-yl)carbamoyl](phenyl)methyl acetate], the pIC50 in test [1] is over 7.00. Besides, the pEC50 in the test on A549 cells is over 7.00.

For the compound `O=C(Cc1ccccc1)Nc1ccn(CCCCc2nnc(NC(=O)Cc3ccccn3)s2)c(=O)c1` [Example 1, N-(2-oxo-1-(4-(5-(2-(pyridin-2-yl)acetamido)-1,3,4-thiadiazol-2-yl)butyl)-1,2-dihydropyridin-4-yl)-2-phenylacetamide], in test [1], the pIC50 is over 7.00. Also, the pEC50 with A549 cells was 5.30 to 6.30.

As to `O=C(Cc1ccccc1)Nc1ccn(CCCCn2cc(C(=O)NCc3ccccc3)nn2)c(=O)c1` [Example 2, N-benzyl-1-(4-(2-oxo-4-(2-phenylacetamido)pyridin-1(2H)-yl)butyl)-1H-1,2,3-triazole-4-carboxamide], the pIC50 in test [1] is 6.30 to 7.00. In the test on A549 cells, this compound had a pEC50 of 5.30 to 6.30.

In the case of `CC(C)(C)OC(=O)Nc1ccn(CCCCn2cc(C(=O)NCc3cccc(OC(F)(F)F)c3)nn2)c(=O)c1` [Example 3, Tert-butyl(2-oxo-1-(4-(4-((3-(trifluoromethoxy)benzyl)carbamoyl)-1H-1,2,3-triazol-1-yl)butyl)-1,2-dihydropyridin-4-yl)carbamate], in test [1], the pIC50 is over 7.00. This compound also had a negative-log EC50 (pEC50) in the test on A549 cells of 6.30 to 7.00.

For `Nc1ccn(CCCCn2cc(C(=O)NCc3cccc(OC(F)(F)F)c3)nn2)c(=O)c1` [Example 4, 1-(4-(4-Amino-2-oxopyridin-1(2H)-yl)butyl)-N-(3-(trifluoromethoxy)benzyl)-1H-1,2,3-triazole-4-carboxamide], the negative-log IC50 (pIC50) in test [1] is 5.30 to 6.30. This compound also had a negative logarithm of the EC50 (pEC50) in the test on A549 cells of under 5.30.

On to `CC(C)CC(=O)Nc1ccn(CCCCn2cc(C(=O)NCc3cccc(OC(F)(F)F)c3)nn2)c(=O)c1` [Example 5, 1-(4-(4-(3-methylbutanamido)-2-oxopyridin-1(2H)-yl)butyl)-N-(3-(trifluoromethoxy)benzyl)-1H-1,2,3-triazole-4-carboxamide], for which the negative logarithm of the IC50 (pIC50) in test [1] is over 7.00. The same compound gave a pEC50 in the test with A549 cells of 6.30 to 7.00.

In the case of `O=C(Cc1ccccn1)Nc1ccn(CCCCn2cc(C(=O)NCc3cccc(OC(F)(F)F)c3)nn2)c(=O)c1` [Example 6, 1-(4-(2-oxo-4-(2-(pyridin-2-yl)acetamido)pyridin-1 (2H)-yl)butyl)-N-(3-(trifluoromethoxy)benzyl)-1H-1,2,3-triazole-4-carboxamide], the pIC50 in test [1] was over 7.00. Besides, the pEC50 in the test with A549 cells was 5.30 to 6.30.

For `CC(C)COC(=O)Nc1ccn(CCCCn2cc(C(=O)NCc3cccc(OC(F)(F)F)c3)nn2)c(=O)c1` [Example 7, Isobutyl(2-oxo-1-(4-(4-((3-(trifluoromethoxy)benzyl)carbamoyl)-1H-1,2,3-triazol-1-yl)butyl)-1,2-dihydropyridin-4-yl)carbamate], in test [1], the negative logarithm of the IC50 (pIC50) is over 7.00. For the same compound, in the test with A549 cells, the negative-log EC50 (pEC50) is 6.30 to 7.00.

Take `O=C(NCc1ccccc1)c1ccn(CCCCn2cc(C(=O)NCc3cccc(OC(F)(F)F)c3)nn2)c(=O)c1` [Example 8, N-Benzyl-2-oxo-1-(4-(4-((3-(trifluoromethoxy)benzyl)carbamoyl)-1H-1,2,3-triazol-1-yl)butyl)-1,2-dihydropyridine-4-carboxamide]: in test [1], the negative logarithm of the IC50 (pIC50) was over 7.00. The negative-log EC50 (pEC50) in the test with A549 cells was 6.30 to 7.00.

For `O=C(Cc1cccc(OC(F)(F)F)c1)Nc1ccn(CCCCn2cc(C(=O)NCc3ccccn3)nn2)c(=O)c1` [Example 10, 1-(4-(2-oxo-4-(2-(3-(trifluoromethoxy)phenyl)acetamido)pyridin-1(2H)-yl)butyl)-N-(pyridin-2-ylmethyl)-1H-1,2,3-triazole-4-carboxamide], the negative logarithm of the IC50 (pIC50) in test [1] is over 7.00. Besides, the pEC50 in the test on A549 cells is 5.30 to 6.30.

Consider `Cc1ccn(CCCCn2cc(C(=O)NCc3cccc(OC(F)(F)F)c3)nn2)c(=O)c1` [Example 11, 1-(4-(4-methyl-2-oxopyridin-1(2H)-yl)butyl)-N-(3-(trifluoromethoxy)benzyl)-1H-1,2,3-triazole-4-carboxamide], for which the negative-log IC50 (pIC50) in test [1] was 5.30 to 6.30. In the test on A549 cells, the negative logarithm of the EC50 (pEC50) is under 5.30.

Turning to `O=C(Cc1ccccc1)Nc1ccn(CCC(F)Cn2cc(C(=O)NCc3cc(OC(F)(F)F)ccc3F)nn2)c(=O)c1` (stereo not shown) [Example 12, 1-(2-fluoro-4-(2-oxo-4-(2-phenylacetamido)pyridin-1(2H)-yl)butyl)-N-(2-fluoro-5-(trifluoromethoxy)benzyl)-1H-1,2,3-triazole-4-carboxamide], the pIC50 in test [1] is over 7.00. In the test with A549 cells, this compound had a pEC50 of over 7.00.

For `O=C(Cc1ccccc1)Nc1ccn(CC(F)CCn2cc(C(=O)NCc3cc(OC(F)(F)F)ccc3F)nn2)c(=O)c1` (stereo not shown) [Example 13, 1-(3-fluoro-4-(2-oxo-4-(2-phenylacetamido)pyridin-1(2H)-yl)butyl)-N-(2-fluoro-5-(trifluoromethoxy)benzyl)-1H-1,2,3-triazole-4-carboxamide], the negative-log IC50 (pIC50) in test [1] is over 7.00. The pEC50 in the test with A549 cells was over 7.00.

For `O=C(Cc1ccccc1)Nc1ccn(CCCCc2ccc(NC(=O)Cc3cccc(OC(F)(F)F)c3)nn2)c(=O)c1` [Example 14, N-(2-oxo-1-(4-(6-(2-(3-(trifluoromethoxy)phenyl)acetamido)pyridazin-3-yl)butyl)-1,2-dihydropyridin-4-yl)-2-phenylacetamide], the pIC50 in test [1] was over 7.00. For the same compound, the negative logarithm of the EC50 (pEC50) in the test with A549 cells is over 7.00.

Consider `O=C(Cc1ccccc1)Nc1ccn(CCCCn2ccc(NC(=O)Cc3ccccc3)nc2=O)c(=O)n1` [Example 15, N,N′-(butane-1,4-diylbis(2-oxo-1,2-dihydropyrimidine-1,4-diyl))bis(2-phenylacetamide)], for which the pIC50 in test [1] is over 7.00. In the test with A549 cells, the pEC50 is under 5.30.

As to `O=C(Cc1ccccc1)Nc1ccn(CCCCc2nnc(NC(=O)Cc3cccnc3)s2)c(=O)n1` [Example 16, N-(2-oxo-1-(4-(5-(2-(pyridin-3-yl)acetamido)-1,3,4-thiadiazol-2-yl)butyl)-1,2-dihydropyrimidin-4-yl)-2-phenylacetamide], the negative logarithm of the IC50 (pIC50) in test [1] was over 7.00. Moreover, the negative logarithm of the EC50 (pEC50) with A549 cells is 5.30 to 6.30.

On to `O=C(Cc1ccccc1)Nc1ccn(CCCCc2nnc(NC(=O)[C@@H](O)c3ccccc3)s2)c(=O)n1` [Example 17, (S)-2-hydroxy-N-(5-(4-(2-oxo-4-(2-phenylacetamido)pyrimidin-1(2H)-yl)butyl)-1,3,4-thiadiazol-2-yl)-2-phenylacetamide], for which the pIC50 in test [1] was over 7.00. For the same compound, the pEC50 in the test on A549 cells was under 5.30.

As to `CC(=O)Nc1ccn(CCCCc2nnc(NC(=O)Cc3ccccc3)s2)c(=O)n1` [Example 18], the negative-log IC50 (pIC50) in test [1] is 6.30 to 7.00. In the test on A549 cells, the negative-log EC50 (pEC50) was under 5.30.

Turning to `O=C(Cc1cccc(OC(F)(F)F)c1)Nc1ccn(CCCCc2nnc(NC(=O)Cc3ccccc3)s2)c(=O)n1` [Example 19, N-(2-oxo-1-{4-[5-(2-phenylacetamido)-1,3,4-thiadiazol-2-yl]butyl}-1,2dihydropyrimidin-4-yl)-2-[3-(trifluoromethoxy)phenyl]acetamide], the negative logarithm of the IC50 (pIC50) in test [1] was over 7.00. This compound gave a pEC50 with A549 cells of 6.30 to 7.00.

In the case of `O=C(Cc1ccccc1)Nc1ccc(CCCCn2ccc(NC(=O)Cc3ccccc3)nc2=O)nn1` [Example 20, N-(2-oxo-1-(4-(6-(2-phenylacetamido)pyridazin-3-yl)butyl)-1,2-dihydropyrimidin-4-yl)-2-phenylacetamide], in test [1], the pIC50 was over 7.00. The pEC50 in the test on A549 cells is over 7.00.

`O=C(Cc1ccccn1)Nc1ccn(CCCCc2nnc(C(=O)NCc3ncccc3F)s2)c(=O)c1` [Example 457, N-[(3-fluoropyridin-2-yl)methyl]-5-(4-{2-oxo-4-[2-(pyridin-2-yl)acetamido]-1,2-dihydropyridin-1-yl}butyl)-1,3,4-thiadiazole-2-carboxamide]: the pIC50 in test [1] was 5.30 to 6.30.

Source of the values: patent publication US20160002204A1 (Board of Regents, The University of Texas System, priority 2014, published 2016).
